These are literature values, as cited in PMC11881343, “Safety of ilunocitinib tablets (Zenrelia™) after once daily oral administration in dogs” (BMC Veterinary Research, 2025).

Molecules are shown by their SMILES.

In series [1] the test system is JAK3. Also noted: method as in PMID 32413585. Conditions: cited from earlier work.
In series [2] the test system is human patients with rheumatoid arthritis. Also noted: method as in PMID 31362993. Conditions: human medicine; cited from earlier work.
Series [3] concerns peripheral blood leukocytes. The note with it: rheumatoid arthritis patients in phase III clinical trials; cited from earlier work.
Series [4] deals with dogs. The note with it: cited from earlier work.

`CCS(=O)(=O)N1CC(CC#N)(n2cc(-c3ncnc4[nH]ccc34)cn2)C1` [baricitinib]: the “potency against JAK3” value in series [1] is on record as “significantly lower potency against JAK3”. The effect on hemoglobin entry in series [2] is reported as “initial decrease in hemoglobin within the normal range followed by a slight increase”. Moreover, in series [3], the “changes in lymphocytes subsets populations” value is “minimal and reversible changes”.
With `CNS(=O)(=O)C[C@H]1CC[C@H](N(C)c2ncnc3[nH]ccc23)CC1` [oclacitinib], in series [4] (dogs), the “Weight gain in dogs” value was “Weight gain has been reported”. The Papillomas in dogs entry in series [4] (resorbed spontaneously) is “Papillomas were also observed”.
As to `CC[C@@H]1CN(C(=O)NCC(F)(F)F)C[C@@H]1c1cnc2cnc3[nH]ccc3n12` [upadacitinib], the effect on hemoglobin result in series [2] is reported as “limited impact on hemoglobin”.
